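Protocol summary: plate cells (96-well), add compound at 5 concentrations, incubate 48 h, interpolate endpoints linearly. Abbreviation: GI50, concentration required for 50% inhibition of growth.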 The source made the active and inactive calls. No stated cut-off is given here; in the data, active = GI50 up to about 1.1 µM and inactive = higher. Where a SMILES comes first, the peptide text is derived from it. The star is where a group is joined. Cbz = O=C(OCc1ccccc1)*; NHNH2 = NN*
Experiments:
Test in all cases: NCI tumour cell line growth inhibition, 48 h
[1] = test system: MDA-N
[2] = test system: UACC-257
[3] = test system: 786-0
[4] = test system: DU-145
[5] = test system: K562
[6] = test system: UACC-62
[7] = test system: HCT-116
[8] = test system: Malme-3M
[9] = test system: RPMI-8226
[10] = test system: HL-60
[11] = test system: U-251
[12] = test system: MDA-MB-435
[13] = test system: OVCAR-8
[14] = test system: SF-539
[15] = test system: MCF7
[16] = test system: A549
[17] = test system: OVCAR-4
[18] = test system: HOP-92
[19] = test system: M14
[20] = test system: MDA-MB-231

Compound | GI50 [1] | GI50 [2] | GI50 [3] | GI50 [4] | GI50 [5] | GI50 [6] | GI50 [7] | GI50 [8] | GI50 [9] | GI50 [10] | GI50 [11] | GI50 [12] | GI50 [13] | GI50 [14] | GI50 [15] | GI50 [16] | GI50 [17] | GI50 [18] | GI50 [19] | GI50 [20]
CCOC(=O)CCC(C(=O)OCC)n1nnc2ccc(Nc3c(C)[n+]([O-])c4ccc(Cl)cc4[n+]3[O-])cc21 (stereo not drawn) | 54.7 µM (inactive) | 19.2 µM (inactive) | 44 µM (inactive) | 50.6 µM (inactive) | 45.8 µM (inactive) | 30.4 µM (inactive) | 40.2 µM (inactive) | > 100 µM (inactive) | 28.6 µM (inactive) | 39.2 µM (inactive) | 46.3 µM (inactive) | 51.9 µM (inactive) | 39.2 µM (inactive) | 38.5 µM (inactive) | 19.9 µM (inactive) | 57.3 µM (inactive) | 33.8 µM (inactive) | 23.8 µM (inactive) | 37.5 µM (inactive) | –
C=CCOCn1ccc(NC(=O)c2ccccc2)nc1=O | > 100 µM (inactive) | > 100 µM (inactive) | > 100 µM (inactive) | > 100 µM (inactive) | > 100 µM (inactive) | > 100 µM (inactive) | > 100 µM (inactive) | > 100 µM (inactive) | > 100 µM (inactive) | > 100 µM (inactive) | – | > 100 µM (inactive) | > 100 µM (inactive) | > 100 µM (inactive) | > 100 µM (inactive) | > 100 µM (inactive) | – | – | > 100 µM (inactive) | > 100 µM (inactive)
O=[N+]([O-])c1cccc(-c2ncnc(-c3cccc([N+](=O)[O-])c3)n2)c1 | > 100 µM (inactive) | 38.7 µM (inactive) | 27.4 µM (inactive) | > 100 µM (inactive) | 48.6 µM (inactive) | 27.4 µM (inactive) | > 100 µM (inactive) | > 100 µM (inactive) | > 100 µM (inactive) | 36.6 µM (inactive) | 23.5 µM (inactive) | > 100 µM (inactive) | > 100 µM (inactive) | – | > 100 µM (inactive) | > 100 µM (inactive) | – | 19.5 µM (inactive) | > 100 µM (inactive) | 34.9 µM (inactive)
Nc1ccc2nc3n(c2c1)C(c1c(F)cccc1F)SC3 (stereo not drawn) | > 100 µM (inactive) | 89.1 µM (inactive) | > 100 µM (inactive) | > 100 µM (inactive) | 85.5 µM (inactive) | > 100 µM (inactive) | > 100 µM (inactive) | > 100 µM (inactive) | 66.5 µM (inactive) | 45.3 µM (inactive) | > 100 µM (inactive) | > 100 µM (inactive) | > 100 µM (inactive) | > 100 µM (inactive) | > 100 µM (inactive) | > 100 µM (inactive) | > 100 µM (inactive) | – | > 100 µM (inactive) | > 100 µM (inactive)
O=C1c2ccccc2C(=O)c2c(NCCCN3CCOCC3)ccc(NCCCN3CCOCC3)c21 | 3.22 µM (inactive) | 2.96 µM (inactive) | 2.29 µM (inactive) | < 0.01 µM (active) | 2.16 µM (inactive) | 2.03 µM (inactive) | 1.23 µM (inactive) | 8.89 µM (inactive) | 2 µM (inactive) | 2.45 µM (inactive) | 3.24 µM (inactive) | – | 1.9 µM (inactive) | 1.82 µM (inactive) | 5.9 µM (inactive) | 4.18 µM (inactive) | 2.67 µM (inactive) | 1.89 µM (inactive) | 3.1 µM (inactive) | 3.08 µM (inactive)
COc1ccc(N2C(=O)C(C#N)=C(SC)C(C#N)C2=O)cc1 (stereo not drawn) | > 100 µM (inactive) | > 100 µM (inactive) | > 100 µM (inactive) | – | > 100 µM (inactive) | > 100 µM (inactive) | > 100 µM (inactive) | > 100 µM (inactive) | – | – | > 100 µM (inactive) | > 100 µM (inactive) | > 100 µM (inactive) | > 100 µM (inactive) | > 100 µM (inactive) | > 100 µM (inactive) | > 100 µM (inactive) | 46.6 µM (inactive) | > 100 µM (inactive) | > 100 µM (inactive)
Nc1nc(-c2ccccc2)cc(-c2ccc(F)cc2)c1-c1ccc(Cl)cc1 | > 100 µM (inactive) | > 100 µM (inactive) | 88.3 µM (inactive) | > 100 µM (inactive) | 12.5 µM (inactive) | > 100 µM (inactive) | > 100 µM (inactive) | > 100 µM (inactive) | 44.3 µM (inactive) | 21.4 µM (inactive) | > 100 µM (inactive) | > 100 µM (inactive) | > 100 µM (inactive) | – | 41.7 µM (inactive) | > 100 µM (inactive) | 88.9 µM (inactive) | – | > 100 µM (inactive) | > 100 µM (inactive)
CCOC(=O)CCC(NC(=O)OCc1ccccc1)C(=O)NC(CCC(=O)OCC)C(=O)NN (stereo not drawn) (Cbz-Glu(OEt)-Glu(OEt)-NHNH2; configuration not given here) | > 100 µM (inactive) | > 100 µM (inactive) | > 100 µM (inactive) | – | > 100 µM (inactive) | > 100 µM (inactive) | > 100 µM (inactive) | > 100 µM (inactive) | > 100 µM (inactive) | > 100 µM (inactive) | > 100 µM (inactive) | – | > 100 µM (inactive) | – | > 100 µM (inactive) | > 100 µM (inactive) | – | > 100 µM (inactive) | > 100 µM (inactive) | > 100 µM (inactive)
